# Reference: paper PMC5218480 (PLoS ONE, 2017)
# System: MV-4-11 cells
# Test: Gene expression microarray analysis (Affymetrix PrimeView) and GSEA
# Assay type: cell-based, human
# Parameters: RFU PODN (11730768_x_at) / Fold change /veh PODN (11730768_x_at) / RFU LINC00158 (11744669_a_at) / Fold change /veh LINC00158 (11744669_a_at) / RFU DUSP10 (11751237_a_at) / Fold change /veh DUSP10 (11751237_a_at) / RFU ID3 (11757404_x_at) / Fold change /veh ID3 (11757404_x_at) / RFU PLEKHG5 (11737974_s_at) / Fold change /veh PLEKHG5 (11737974_s_at) / RFU LRRC4B (11730491_at) / Fold change /veh LRRC4B (11730491_at) / RFU GIMAP4 (11747438_a_at) / Fold change /veh GIMAP4 (11747438_a_at) / RFU KRT8 (11758183_x_at) / Fold change /veh KRT8 (11758183_x_at) / RFU CNN1 (11734310_a_at) / Fold change /veh CNN1 (11734310_a_at) / RFU VPS37D (11726825_at) / Fold change /veh VPS37D (11726825_at) / RFU C10orf10 (11716522_x_at) / Fold change /veh C10orf10 (11716522_x_at) / RFU KIR2DL2 /// KIR2DL4 /// KIR2DL5A /// KIR2DL5B /// KIR2DS1 /// KIR2DS2 /// KIR2DS3 /// KIR2DS4 /// KIR3DL3 /// KIR3DL3 /// KIR3DS1 (11738374_at) / Fold change /veh KIR2DL2 /// KIR2DL4 /// KIR2DL5A /// KIR2DL5B /// KIR2DS1 /// KIR2DS2 /// KIR2DS3 /// KIR2DS4 /// KIR3DL3 /// KIR3DL3 /// KIR3DS1 (11738374_at) / RFU C1QL1 (11718748_at) / Fold change /veh C1QL1 (11718748_at) / RFU TMPRSS4 (11747572_a_at) / Fold change /veh TMPRSS4 (11747572_a_at) / RFU HAMP (11756126_x_at) / Fold change /veh HAMP (11756126_x_at) / RFU RNFT2 (11725882_a_at) / Fold change /veh RNFT2 (11725882_a_at) / RFU NR4A2 (11747474_a_at) / Fold change /veh NR4A2 (11747474_a_at) / RFU ABCC12 (11746883_a_at) / Fold change /veh ABCC12 (11746883_a_at) / RFU TMEM136 (11760407_x_at) / Fold change /veh TMEM136 (11760407_x_at) / RFU CLDN22 /// WWC2 (11732394_at) / Fold change /veh CLDN22 /// WWC2 (11732394_at) / RFU HLA-DPB1 (11760878_x_at) / Fold change /veh HLA-DPB1 (11760878_x_at) / RFU SPINT1 (11716480_a_at) / Fold change /veh SPINT1 (11716480_a_at) / RFU GAP43 (11754022_s_at) / Fold change /veh GAP43 (11754022_s_at) / RFU A4GNT (11735810_at) / Fold change /veh A4GNT (11735810_at) / RFU PRB3 (11715151_x_at) / Fold change /veh PRB3 (11715151_x_at) / RFU TUBB4B (11761932_at) / Fold change /veh TUBB4B (11761932_at) / RFU CAPN14 (11732068_a_at) / Fold change /veh CAPN14 (11732068_a_at) / RFU TMCC2 (11721928_a_at) / Fold change /veh TMCC2 (11721928_a_at) / RFU IRGQ (11745062_a_at) / Fold change /veh IRGQ (11745062_a_at) / RFU FAM174B (11720279_a_at) / Fold change /veh FAM174B (11720279_a_at) / RFU TMPRSS4 (11748680_a_at) / Fold change /veh TMPRSS4 (11748680_a_at) / RFU FAM212B (11763350_a_at) / Fold change /veh FAM212B (11763350_a_at) / RFU PLEKHG5 (11743358_a_at) / Fold change /veh PLEKHG5 (11743358_a_at) / RFU ZSCAN30 (11745921_a_at) / Fold change /veh ZSCAN30 (11745921_a_at) / RFU CMKLR1 (11741424_a_at) / Fold change /veh CMKLR1 (11741424_a_at) / RFU LOC101060620 /// MAPK8IP1 (11723275_at) / Fold change /veh LOC101060620 /// MAPK8IP1 (11723275_at) / RFU SPTSSB (11747773_x_at) / Fold change /veh SPTSSB (11747773_x_at) / RFU PRSS12 (11739890_at) / Fold change /veh PRSS12 (11739890_at) / RFU BIN1 (11741810_x_at) / Fold change /veh BIN1 (11741810_x_at) / RFU WNT11 (11732464_a_at) / Fold change /veh WNT11 (11732464_a_at) / RFU C10orf10 (11716521_a_at) / Fold change /veh C10orf10 (11716521_a_at) / RFU C5orf56 (11738089_at) / Fold change /veh C5orf56 (11738089_at) / RFU CYB561 (11721691_x_at) / Fold change /veh CYB561 (11721691_x_at) / RFU ANKRD19P (11752326_a_at) / Fold change /veh ANKRD19P (11752326_a_at) / RFU OR2T12 /// OR2T33 /// OR2T8 (11738714_s_at) / Fold change /veh OR2T12 /// OR2T33 /// OR2T8 (11738714_s_at) / RFU VCAN (11748164_a_at) / Fold change /veh VCAN (11748164_a_at) / RFU JSRP1 (11732532_at) / Fold change /veh JSRP1 (11732532_at) / RFU KRTAP10-11 (11738290_x_at) / Fold change /veh KRTAP10-11 (11738290_x_at) / RFU MYO3A (11730013_a_at) / Fold change /veh MYO3A (11730013_a_at) / RFU EBF3 (11725865_a_at) / Fold change /veh EBF3 (11725865_a_at) / RFU CAMK2N1 (11719241_x_at) / Fold change /veh CAMK2N1 (11719241_x_at) / RFU C5orf56 (11738088_a_at) / Fold change /veh C5orf56 (11738088_a_at) / RFU OLFML3 (11715873_a_at) / Fold change /veh OLFML3 (11715873_a_at) / RFU LOC100653217 /// NTM (11731650_a_at) / Fold change /veh LOC100653217 /// NTM (11731650_a_at) / RFU MAPK11 (11762145_a_at) / Fold change /veh MAPK11 (11762145_a_at) / RFU FIZ1 (11724087_x_at) / Fold change /veh FIZ1 (11724087_x_at) / RFU OASL (11726364_x_at) / Fold change /veh OASL (11726364_x_at) / RFU SOX15 (11748057_x_at) / Fold change /veh SOX15 (11748057_x_at) / RFU CD79A (11719716_a_at) / Fold change /veh CD79A (11719716_a_at) / RFU HIST1H1D (11736915_at) / Fold change /veh HIST1H1D (11736915_at) / RFU CASKIN2 (11723855_a_at) / Fold change /veh CASKIN2 (11723855_a_at) / RFU LOC730098 (11760151_x_at) / Fold change /veh LOC730098 (11760151_x_at) / RFU OR4N2 (11742367_at) / Fold change /veh OR4N2 (11742367_at) / RFU PRRT2 (11749266_a_at) / Fold change /veh PRRT2 (11749266_a_at) / RFU SNX32 (11753110_a_at) / Fold change /veh SNX32 (11753110_a_at) / RFU CDHR5 (11726645_a_at) / Fold change /veh CDHR5 (11726645_a_at) / RFU RCAN1 (11760418_a_at) / Fold change /veh RCAN1 (11760418_a_at) / RFU FAM167A (11723789_a_at) / Fold change /veh FAM167A (11723789_a_at) / RFU FAM26E (11764081_at) / Fold change /veh FAM26E (11764081_at) / RFU ISYNA1 (11749810_s_at) / Fold change /veh ISYNA1 (11749810_s_at) / RFU ACY1 (11761880_at) / Fold change /veh ACY1 (11761880_at) / RFU 11764098_at / Fold change /veh 11764098_at / RFU SAMD14 (11745864_x_at) / Fold change /veh SAMD14 (11745864_x_at) / RFU NPB (11741838_a_at) / Fold change /veh NPB (11741838_a_at) / RFU TMPRSS6 (11731388_a_at) / Fold change /veh TMPRSS6 (11731388_a_at) / RFU KRTAP10-2 (11738614_at) / Fold change /veh KRTAP10-2 (11738614_at) / RFU ARHGAP8 /// PRR5-ARHGAP8 (11727945_x_at) / Fold change /veh ARHGAP8 /// PRR5-ARHGAP8 (11727945_x_at) / RFU KRTAP5-7 /// NADSYN1 (11734609_at) / Fold change /veh KRTAP5-7 /// NADSYN1 (11734609_at) / RFU RASL12 (11751679_a_at) / Fold change /veh RASL12 (11751679_a_at) / RFU CDKN2B (11736163_a_at) / Fold change /veh CDKN2B (11736163_a_at) / RFU PRF1 (11729649_at) / Fold change /veh PRF1 (11729649_at) / RFU, ZNF638 /// ZNF638-IT1 / Fold change vs veh, ZNF638 /// ZNF638-IT1 / RFU, PANK3 / Fold change vs veh, PANK3 / RFU, SH3YL1 / Fold change vs veh, SH3YL1 / RFU, ZEB2 / Fold change vs veh, ZEB2 / RFU, NRIP1 / Fold change vs veh, NRIP1 / RFU, PTTG1IP / Fold change vs veh, PTTG1IP / RFU, CAPN2 / Fold change vs veh, CAPN2 / RFU, MED14 / Fold change vs veh, MED14 / RFU, SNORA58 / Fold change vs veh, SNORA58 / RFU, C1orf63 / Fold change vs veh, C1orf63 / RFU, LRRFIP1 / Fold change vs veh, LRRFIP1 / RFU, NDUFAF7 / Fold change vs veh, NDUFAF7 / RFU, SLC12A2 / Fold change vs veh, SLC12A2 / RFU, IBTK / Fold change vs veh, IBTK / RFU, ESF1 / Fold change vs veh, ESF1 / Fold change vs veh, TMEM50B / RFU, TAOK1 / Fold change vs veh, TAOK1 / RFU, ACBD3 / Fold change vs veh, ACBD3 / RFU, TMA16 / Fold change vs veh, TMA16 / RFU, RWDD3 / Fold change vs veh, RWDD3 / RFU, BCAT1 / Fold change vs veh, BCAT1 / RFU, EDEM3 / Fold change vs veh, EDEM3 / RFU, TMEM33 / Fold change vs veh, TMEM33 / RFU, WDR75 / Fold change vs veh, WDR75 / RFU, AHCTF1 / Fold change vs veh, AHCTF1 / RFU, TFRC / Fold change vs veh, TFRC / RFU, ZDHHC17 / Fold change vs veh, ZDHHC17 / RFU, NOM1 / Fold change vs veh, NOM1 / RFU, ARL8B / Fold change vs veh, ARL8B / RFU, ZBTB11 / Fold change vs veh, ZBTB11 / RFU, TAMM41 / Fold change vs veh, TAMM41 / RFU, KIAA1704 /// LOC100996395 / Fold change vs veh, KIAA1704 /// LOC100996395 / RFU, ING1 / Fold change vs veh, ING1 / RFU, TRMT61B / Fold change vs veh, TRMT61B / RFU, FUBP3 / Fold change vs veh, FUBP3 / RFU, TP53 / Fold change vs veh, TP53 / RFU, TNKS2 / Fold change vs veh, TNKS2 / RFU, ZFP14 / Fold change vs veh, ZFP14 / RFU, ACTR2 / Fold change vs veh, ACTR2 / RFU, PPP3R1 / Fold change vs veh, PPP3R1 / RFU, PIK3R1 / Fold change vs veh, PIK3R1 / RFU, HNRNPA1 / Fold change vs veh, HNRNPA1 / RFU, RNF170 / Fold change vs veh, RNF170 / RFU, ZNF28 / Fold change vs veh, ZNF28 / RFU, RNGTT / Fold change vs veh, RNGTT / RFU, OGT / Fold change vs veh, OGT / RFU, BRD1 / Fold change vs veh, BRD1 / RFU, MARS / Fold change vs veh, MARS / RFU, ZNF655 / Fold change vs veh, ZNF655 / RFU, FAHD1 / Fold change vs veh, FAHD1 / RFU, BDP1 / Fold change vs veh, BDP1 / RFU, LRRCC1 / Fold change vs veh, LRRCC1 / RFU, ARID1A / Fold change vs veh, ARID1A / RFU, ZNF146 / Fold change vs veh, ZNF146 / RFU, ZNF330 / Fold change vs veh, ZNF330 / RFU, GPN3 / Fold change vs veh, GPN3 / RFU, C9orf123 / Fold change vs veh, C9orf123 / RFU, N4BP2L2 / Fold change vs veh, N4BP2L2 / RFU, ARFIP1 / Fold change vs veh, ARFIP1 / RFU, FAM179B / Fold change vs veh, FAM179B / RFU, BCL10 / Fold change vs veh, BCL10 / RFU, UHRF1BP1L / Fold change vs veh, UHRF1BP1L / RFU, BET1 / Fold change vs veh, BET1 / RFU, CNOT2 / Fold change vs veh, CNOT2 / RFU, ZNF268 / Fold change vs veh, ZNF268 / Fold change vs veh, ZNF507 / RFU, DGCR2 / Fold change vs veh, DGCR2 / RFU, WDSUB1 / Fold change vs veh, WDSUB1 / Fold change vs veh, HSP90B1 /// MIR3652 / RFU, ADSS / Fold change vs veh, ADSS / RFU, GK / Fold change vs veh, GK / RFU, ZNF148 / Fold change vs veh, ZNF148 / RFU, TAF9 / Fold change vs veh, TAF9 / RFU, SLC1A5 / Fold change vs veh, SLC1A5 / RFU, SLMO2 / Fold change vs veh, SLMO2 / RFU, ABCC4 / Fold change vs veh, ABCC4 / RFU, LOC101060439 /// RAP1B / Fold change vs veh, LOC101060439 /// RAP1B / RFU, RFX7 / Fold change vs veh, RFX7 / RFU, GTPBP10 / Fold change vs veh, GTPBP10 / RFU, CNEP1R1 / Fold change vs veh, CNEP1R1 / RFU, BIVM-ERCC5 /// ERCC5 / Fold change vs veh, BIVM-ERCC5 /// ERCC5 / RFU, ILF3 / Fold change vs veh, ILF3 / RFU 11762660_at / Fold change /veh 11762660_at / RFU VCAN (11757783_s_at) / Fold change /veh VCAN (11757783_s_at) / RFU DDX43 (11728927_at) / Fold change /veh DDX43 (11728927_at) / RFU KRT8 (11758188_x_at) / Fold change /veh KRT8 (11758188_x_at) / RFU NKD1 (11759106_at) / Fold change /veh NKD1 (11759106_at) / RFU SRD5A1 (11742802_a_at) / Fold change /veh SRD5A1 (11742802_a_at) / RFU TPSAB1 /// TPSB2 (11721975_s_at) / Fold change /veh TPSAB1 /// TPSB2 (11721975_s_at) / RFU GSTM3 (11746129_a_at) / Fold change /veh GSTM3 (11746129_a_at) / RFU IL23R (11737362_x_at) / Fold change /veh IL23R (11737362_x_at) / RFU TMEM51 (11727254_a_at) / Fold change /veh TMEM51 (11727254_a_at) / RFU PIWIL2 (11732686_x_at) / Fold change /veh PIWIL2 (11732686_x_at) / RFU ORM1 (11744905_x_at) / Fold change /veh ORM1 (11744905_x_at) / RFU CCDC152 (11743942_at) / Fold change /veh CCDC152 (11743942_at) / RFU ECM1 (11717891_a_at) / Fold change /veh ECM1 (11717891_a_at) / RFU IL23R (11748794_a_at) / Fold change /veh IL23R (11748794_a_at) / RFU TNFAIP8L3 (11732012_x_at) / Fold change /veh TNFAIP8L3 (11732012_x_at) / RFU MBOAT4 (11741988_at) / Fold change /veh MBOAT4 (11741988_at) / RFU 11764193_at / Fold change /veh 11764193_at / RFU TMEM53 (11763286_at) / Fold change /veh TMEM53 (11763286_at) / RFU MAGEB2 (11727129_at) / Fold change /veh MAGEB2 (11727129_at) / RFU TMEM200A (11744735_a_at) / Fold change /veh TMEM200A (11744735_a_at) / RFU CCDC152 (11751479_a_at) / Fold change /veh CCDC152 (11751479_a_at) / RFU FAM211A (11726209_a_at) / Fold change /veh FAM211A (11726209_a_at) / RFU RGS16 (11746705_a_at) / Fold change /veh RGS16 (11746705_a_at) / RFU VCAN (11755009_s_at) / Fold change /veh VCAN (11755009_s_at) / RFU RHOB (11743442_s_at) / Fold change /veh RHOB (11743442_s_at) / RFU RGS16 (11720943_a_at) / Fold change /veh RGS16 (11720943_a_at) / RFU RGS16 (11720944_at) / Fold change /veh RGS16 (11720944_at) / RFU, VPS4B / Fold change vs veh, VPS4B / RFU, CREB1 / Fold change vs veh, CREB1 / RFU, DNAJC13 / Fold change vs veh, DNAJC13 / RFU, GNAQ / Fold change vs veh, GNAQ / RFU, CDK5R1 / Fold change vs veh, CDK5R1 / RFU, ZRANB3 / Fold change vs veh, ZRANB3 / RFU, CUL4A / Fold change vs veh, CUL4A / RFU, CCNY / Fold change vs veh, CCNY / RFU, UFL1 / Fold change vs veh, UFL1 / RFU, COG3 / Fold change vs veh, COG3 / RFU, DIAPH2 / Fold change vs veh, DIAPH2 / RFU, SKA2 / Fold change vs veh, SKA2 / RFU, AFF3 / Fold change vs veh, AFF3 / RFU, LMF1 / Fold change vs veh, LMF1 / RFU, IPO11 / Fold change vs veh, IPO11 / RFU, DFFB / Fold change vs veh, DFFB / RFU, FOXP1 / Fold change vs veh, FOXP1 / RFU, CARD8 / Fold change vs veh, CARD8 / RFU, STRN3 / Fold change vs veh, STRN3 / RFU, ADK / Fold change vs veh, ADK / RFU, RASSF2 / Fold change vs veh, RASSF2 / RFU, WIPF1 / Fold change vs veh, WIPF1 / RFU, LARP1B / Fold change vs veh, LARP1B / RFU, RASA1 / Fold change vs veh, RASA1 / RFU, RB1 / Fold change vs veh, RB1 / RFU, PPFIA1 / Fold change vs veh, PPFIA1 / RFU, MAT2A / Fold change vs veh, MAT2A / RFU, CCT5 / Fold change vs veh, CCT5 / RFU, WDR92 / Fold change vs veh, WDR92 / RFU, CUX1 / Fold change vs veh, CUX1 / RFU, TTC7A / Fold change vs veh, TTC7A / RFU, TMEM135 / Fold change vs veh, TMEM135 / RFU, DEPTOR / Fold change vs veh, DEPTOR / RFU, CPM / Fold change vs veh, CPM / RFU, DNAJB6 / Fold change vs veh, DNAJB6 / RFU, CACNA2D3 / Fold change vs veh, CACNA2D3 / RFU, DTX4 / Fold change vs veh, DTX4 / RFU, TFCP2 / Fold change vs veh, TFCP2 / RFU, GMCL1 /// GMCL1P1 / Fold change vs veh, GMCL1 /// GMCL1P1 / RFU, AEBP2 / Fold change vs veh, AEBP2 / RFU, SNHG1 /// SNORD22 /// SNORD25 /// SNORD26 /// SNORD27 /// SNORD28 /// SNORD29 /// SNORD31 / Fold change vs veh, SNHG1 /// SNORD22 /// SNORD25 /// SNORD26 /// SNORD27 /// SNORD28 /// SNORD29 /// SNORD31 / Fold change (Aza/veh), C12orf56 (ProbeSet 11735607_a_at) / Fold change (ACY-1035/veh), C12orf56 (ProbeSet 11735607_a_at) / Fold change (Aza/veh), FGFR1OP (ProbeSet 11751329_s_at) / Fold change (ACY-1035/veh), FGFR1OP (ProbeSet 11751329_s_at) / Fold change (Aza/veh), VPS36 (ProbeSet 11739960_a_at) / Fold change (ACY-1035/veh), VPS36 (ProbeSet 11739960_a_at) / RFU SYPL1 (11715823_x_at) / Fold change /veh SYPL1 (11715823_x_at) / RFU IGFBP7 (11715501_s_at) / Fold change /veh IGFBP7 (11715501_s_at) / RFU REEP3 (11722064_at) / Fold change /veh REEP3 (11722064_at) / RFU IGLL1 (11728026_x_at) / Fold change /veh IGLL1 (11728026_x_at): dose or concentration left out as unconfirmed
# Details: MV-4-11 cells, 48 hours
compound,measurement,value
Nc1ccc(-c2cccs2)cc1NC(=O)c1ccc2c(c1)cc(C1CC1)n2CCN1CCOCC1 [ACY-1035],RFU ISYNA1 (11749810_s_at),21.49 RFU
